In patent publication US8895033B2, “Sustained release formulations using non-aqueous carriers” (Amylin Pharmaceuticals, LLC, priority 2008, dated 2014):

Experiment: Fraction of drug in microparticles and in MCT oil carrier after storage
Format: physicochemical
From the text: Mixtures ranged from 2% to 10% w/w of the active pharmaceutical ingredient. The mixed powder was transferred to an extruder where the temperature was adjusted according to the chosen polymer. Some polymers needed higher temperatures to produce a melt with good flow properties. The extruder contained twin screws that moved clockwise to produce efficient mixing. The material was extruded through a 1.5 mm orifice, collected, cooled at room temperature, and cut into short strands about 1-2 inches long. These strands were then fed into a 12-tooth rotor mill, followed by a sieving step to produce microparticles of about 20 to 100 microns. The microparticles were collected and stored at 5° C. until further use.
Experimental samples were prepared by dispersing about 50 mg of the microparticles into 0.75 mL of a MCT oil carrier. The samples were stored at 5° C. and 25° C. for two days, two weeks, or one month, at which times representative samples were tested. The fraction of drug that remained in the microparticles and the fraction of drug that partitioned into the MCT oil carrier were determined. Briefly, the samples were centrifuged to separate the microparticles from the MCT oil carrier. Each portion was treated independently to determine the amount of drug it contained. Results are reported on the basis of the percent residing in each independent portion.

[1] = PLGA copolymer, 1 Month Storage at 5° C.
[2] = PLGA copolymer, 1 Month Storage at 25° C.
[3] = PLGA copolymer, 2 Days Storage at 5° C.
[4] = PLGA copolymer, 2 Days Storage at 25° C.
[5] = polycaprolactone/PLGA copolymer, Two Weeks Storage, 5° C.
[6] = polycaprolactone/PLGA copolymer, Two Weeks Storage, 25° C.

| Compound | percent of drug in MCT Carrier [1] | percent of drug in Microparticles [1] | percent of drug in MCT Carrier [2] | percent of drug in Microparticles [2] | percent of drug in MCT Carrier [3] | percent of drug in Microparticles [3] | percent of drug in MCT Carrier [4] | percent of drug in Microparticles [4] | percent of drug in MCT Carrier [5] | percent of drug in Microparticles [5] | percent of drug in MCT Carrier [6] | percent of drug in Microparticles [6] | migration into the MCT carrier oil (from microparticles on storage) |
| --- | --- | --- | --- | --- | --- | --- | --- | --- | --- | --- | --- | --- | --- |
| CC[C@H](C)[C@H](NC(=O)[C@@H]1CCCN1C(=O)CNC(=O)[C@H](Cc1ccccc1)NC(=O)[C@H](CC(N)=O)NC(=O)[C@H](CC(N)=O)NC(=O)[C@H](CO)NC(=O)[C@H](CO)NC(=O)[C@H](Cc1c[nH]cn1)NC(=O)[C@@H](NC(=O)[C@H](CC(C)C)NC(=O)[C@H](Cc1ccccc1)NC(=O)[C@H](CC(N)=O)NC(=O)[C@H](C)NC(=O)[C@H](CC(C)C)NC(=O)[C@H](CCCNC(=N)N)NC(=O)[C@H](CCC(N)=O)NC(=O)[C@@H](NC(=O)[C@H](C)NC(=O)[C@@H]1CSSC[C@H](NC(=O)[C@@H](N)CCCCN)C(=O)N[C@@H](CC(N)=O)C(=O)N[C@@H]([C@@H](C)O)C(=O)N[C@@H](C)C(=O)N[C@@H]([C@@H](C)O)C(=O)N1)[C@@H](C)O)C(C)C)C(=O)N[C@@H](CC(C)C)C(=O)N1CCC[C@H]1C(=O)N1CCC[C@H]1C(=O)N[C@H](C(=O)N[C@@H](CC(N)=O)C(=O)N[C@H](C(=O)NCC(=O)N[C@@H](CO)C(=O)N[C@@H](CC(N)=O)C(=O)N[C@H](C(=O)N[C@@H](Cc1ccc(O)cc1)C(N)=O)[C@@H](C)O)C(C)C)[C@@H](C)O [pramlintide] | 0.3% | 99.7% | 0.0% | 100.0% | 0.0% | 100.0% | 0.0% | 100.0% | 0.0% | 100.0% | 0.0% | 100.0% | – |
| O=C(O)c1ccccc1O [salicylic acid] | 0.1% | 99.9% | 0.2% | 99.8% | 1.1% | 98.9% | 0.9% | 99.1% | – | – | – | – | did not migrate |
| O=C([O-])c1ccccc1O.[Na+] [sodium salicylate] | 1.3% | 98.7% | 1.5% | 98.5% | 0.5% | 99.5% | 2.3% | 97.7% | – | – | – | – | – |
| bovine serum albumin | 0.0% | 100.0% | 0.0% | 100.0% | 0.0% | 100.0% | 0.0% | 100.0% | – | – | – | – | – |
| davalintide | 0.6% | 99.4% | 0.0% | 100.0% | 0.2% | 99.8% | 0.0% | 100.0% | – | – | – | – | – |
| insulin | 0.5% | 99.5% | 0.7% | – | – | – | – | – | – | – | – | – | – |
| metreleptin | 0.0% | 100.0% | 0.0% | 100.0% | 0.0% | 100.0% | 0.0% | 100.0% | – | – | – | – | – |
